Test results as given in publication PMC12903969, “Discovery of a Novel and Potent Kir4.1 Inhibitor as a Safe and Rapid‐Onset Antidepressant Agent in Mice” (Advanced Science, 2025).
Values joined by “and” are separate entries in the source; they are usually repeats but may differ in a detail not shown here. Equal values may be shown once. Read-outs that look alike come from different tables or passages of the source.

How the values were obtained:
mice [1] = assay: Novel object recognition test (NOR); type: in vivo; settings: chronic 10 mg kg−1 per day
Method: This test was designed to assess memory in rodents. The mice were individually exposed to familiar and novel objects. The test consists of three phases: habituation, training, and retention. During habituation, each animal freely traversed an empty cubic arena (≈40 cm per side) for 5 min, then was returned to its home cage. In the subsequent training phase, two identical rectangular objects were fixed 10 cm from opposite walls, and the mouse, introduced with its snout directed toward the center of the distal wall, was allowed to investigate the objects for 5 min. One hour later, in the retention phase, one of the familiar objects was exchanged for a geometrically distinct but comparably sized novel object, and exploration was recorded for 5 min. The positions of familiar and novel objects were systematically randomized across trials to prevent spatial bias. Object exploration was quantified as the duration of direct nose/mouth orientation toward objects within ≤ 2 cm, excluding instances of turning away or sitting on objects. Recognition memory was assessed using the discrimination ratio, calculated as N/(N + F) × 100%, where N represents the exploration time of the novel object and F denotes the exploration time of the familiar object.

mice [2] = assay: Shuttle box test (SBT); type: in vivo
Method: This test was designed to measure learning and memory function in rodents. The shuttle box consists of two compartments connected by a freely passable gate. The mice were allowed to explore the test chamber freely for 5 min before the test to eliminate exploratory reflexes. Each mouse was placed in one compartment of the shuttle box. The conditioning protocol began with a 5‐s conditioned stimulus presentation of light (200 lux) and auditory tone (100 dB, 1000 Hz), followed immediately by a 3‐s footshock (300 µA) unconditioned stimulus. Escape to the opposite compartment during the conditioned stimulus presentation was scored as an active avoidance response, whereas escape occurring only after shock onset was recorded as […]. […] Each test session consisted of 40 trials with 10‐s inter‐trial intervals, with the number of active avoidance responses systematically recorded.

C57BL/6J mice after CSDS = assay: Chronic social defeat stress (CSDS) model, sucrose preference test; type: in vivo; settings: single i.p. injection 10 mg kg−1
Method: The 10‐day CSDS paradigm was conducted as previously described.^[ [24] ^] CD‐1 aggressive mice were singly housed in defeat cages on one side of a perforated plexiglass partition 24 h before the defeat session. Experimental C57BL/6J mice were placed daily on the resident cage side of a novel CD‐1 aggressor that rapidly initiated a physical attack on the intruder. After 10‐min of social defeat, the intruder mice were housed on the opposite side of the partition within a shared home cage, experiencing further sensory contact for the subsequent 24 h. In contrast, control mice were maintained in their home cages and allowed to explore the empty defeat cages for 10 min each day.
Mice were individually housed with two identical bottles containing either 1% sucrose solution or tap water for 24 h. The bottles were then replaced to eliminate potential positional bias, followed by an additional 24‐h period with the same solutions. Subsequently, the mice were provided with tap water for 24 h. During the experimental phase, new bottles filled with either 1% sucrose solution or tap water were presented for 24 h, and the bottles were changed every 12 h. The bottles were weighed both before and after the 24‐h test to assess consumption of each solution.

Kir4.1 E158N = target: T1, Kir4.1 E158N (Homo sapiens, UniProt P78508, E158N); assay: Whole-cell patch clamp, Kir4.1 point mutant E158N; type: cell-based
T1 construct: expressed in transfected cells; host or cells: CHO-K1
T1 sequence (P78508 1-379 E158N): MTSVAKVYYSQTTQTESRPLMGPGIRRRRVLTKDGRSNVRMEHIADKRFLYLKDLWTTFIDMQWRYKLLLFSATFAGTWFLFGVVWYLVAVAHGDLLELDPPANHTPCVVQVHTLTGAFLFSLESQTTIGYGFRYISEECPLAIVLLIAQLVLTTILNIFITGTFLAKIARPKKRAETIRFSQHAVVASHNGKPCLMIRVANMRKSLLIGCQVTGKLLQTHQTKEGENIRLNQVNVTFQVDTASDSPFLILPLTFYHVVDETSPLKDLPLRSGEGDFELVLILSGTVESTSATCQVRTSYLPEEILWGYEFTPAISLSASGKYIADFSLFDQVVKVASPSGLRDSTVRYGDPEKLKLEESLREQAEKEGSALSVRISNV
Method: Plasmids encoding WT human potassium channels Kir1.1, Kir2.1, Kir2.2, Kir4.1, and Kir4.2 were obtained from the Beijing Genomics Institute. All point mutations were constructed using the QuickChange II Site‐Directed Mutagenesis Kit (Stratagene) and subsequently verified by sequencing.
CHO‐K1 cells were maintained in DMEM/F12 growth medium containing 10% fetal bovine serum. Plasmids encoding the target genes (3600 ng) and enhanced green fluorescent protein (400 ng) were cotransfected into cells using Lipofectamine 2000 (Invitrogen) in accordance with the manufacturer's instructions. Cells were seeded onto poly‐d‐lysine (PDL)‐coated glass coverslips 1 h prior to electrophysiological recordings. All cells were cultured under standard conditions of 5% CO2 at 37 °C.
Whole‐cell patch‐clamp recordings were obtained either in transiently transfected CHO‐K1 cells or in primary cultured astrocytes at room temperature using standard patch‐clamp techniques with an Axopatch‐700B amplifier (Axon Instruments). The signals were filtered at 2 kHz and sampled at 20 kHz using the Digidata 1440A interface (Axon Instruments). The resistance of borosilicate glass pipettes was typically 2–4 MΩ when filled with the internal solution. Drug application was facilitated using a BPS perfusion system (ALA Scientific Instruments). Macroscopic currents generated by expressed potassium channels were recorded under the voltage‐clamp conditions with an internal pipette solution composed of (in mM): 140 KCl, 5 NaCl, 1 CaCl2, 1 MgCl2, 10 HEPES, and 10 EGTA, pH 7.2 adjusted with KOH. The external solution contained (in mM): 140 NaCl, 5 KCl, 2 CaCl2, 1 MgCl2, 10 glucose, and 10 HEPES, pH 7.4 adjusted with NaOH. Currents were elicited with a hyperpolarized voltage at −120 mV from the holding potential of −80 mV, followed by a ramp voltage depolarizing to +50 mV. Astrocytic resting membrane potentials were recorded under current‐clamp conditions (I = 0 pA) using standard internal and external solutions, determined immediately after achieving whole‐cell mode.

c1ccc2c(c1)oc1ccc(Nc3ccnc(NCCCN4CCOCC4)n3)cc12 [JX3212, N^4-(dibenzo[b,d]furan-2-yl)-N^2-(3-morpholinopropyl)pyrimidine-2,4-diamine]
NOR discrimination ratio vs vehicle (in words) (mice [1]): showed no effects
shuttle box active avoidance responses (in words) (mice [2]; chronic 10 mg kg−1 per day): no significant differences
SBT active avoidance responses, single mice (mice [2]; chronic 10 mg/kg per day (Fig 5G)): 22 and 29 and 31 and 32 and 21 and 24 and 28 and 25
CSDS: sucrose preference in SPT (in words) (C57BL/6J mice after CSDS): nonsignificant increase in the sucrose preference ratio
inhibition at 3 µM (Kir4.1 E158N; 3 µM, mean ± SEM, read-out: current inhibition, Kir4.1 E158N): 29.4 ± 2.66%
Mutation: E158N inhibition, single recordings (Kir4.1 E158N; JX3212 3 µM (Fig 2D)): 26.6694 and 31.4659 and 31.9554
inhibition at 3 µM (Kir4.1 E158N; JX3212 3 µM (Fig 2D), read-out: Mutation: E158N inhibition, single recordings): 27.7%
